From patent US10344025B2, “GLS1 inhibitors for treating disease” (Board of Regents, The University of Texas System, priority 2014, dated 2019)

Assays:
[1] = molecular target: purified recombinant human GAC (GLS1) (Homo sapiens (Human), UniProt O94925); test: GLS1 Enzymatic Activity Assay (dual-coupled enzymatic assay, resorufin/Amplex UltraRed readout); assay type: biochemical;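 note: glutamate from GAC coupled via glutamate oxidase and peroxidase to resorufin, read as fluorescence (ex 530, em 590 nm) kinetically or at 20 min, four-parameter logistic IC50 fit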
A549 cells = test: Proliferation Assay (A549 viability, Cell Titer Fluor, 72 hours); assay type: cell-based; conditions: Homo sapiens, A549, 72 h
Procedure, shortened: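 A549 cells seeded at 1000 cells/well, rested 24 h, then exposed to compound in 0.5% DMSO for 72 h at 37 °C. Viability read by Cell Titer Fluor fluorescence; IC50 from four-parameter logistic fit.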

purified recombinant human GAC (GLS1), sequence (O94925 other isoform, or with tags, fused parts or gaps): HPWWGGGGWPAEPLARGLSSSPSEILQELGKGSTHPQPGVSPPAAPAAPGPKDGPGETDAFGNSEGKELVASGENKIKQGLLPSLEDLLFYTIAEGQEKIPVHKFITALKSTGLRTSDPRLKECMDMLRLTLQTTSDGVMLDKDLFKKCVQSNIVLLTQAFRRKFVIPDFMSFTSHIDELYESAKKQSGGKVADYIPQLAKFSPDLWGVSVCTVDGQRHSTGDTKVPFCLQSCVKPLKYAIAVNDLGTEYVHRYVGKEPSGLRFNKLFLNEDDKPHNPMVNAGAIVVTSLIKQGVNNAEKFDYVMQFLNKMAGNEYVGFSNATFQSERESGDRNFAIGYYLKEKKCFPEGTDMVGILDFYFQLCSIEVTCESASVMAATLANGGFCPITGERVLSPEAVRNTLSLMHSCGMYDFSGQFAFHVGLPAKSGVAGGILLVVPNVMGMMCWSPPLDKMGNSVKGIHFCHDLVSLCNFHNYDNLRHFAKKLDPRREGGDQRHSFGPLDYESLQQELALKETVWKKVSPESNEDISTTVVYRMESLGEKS

| SMILES | IC50 [1] [nM] | EC50 (A549 cells) [nM] |
| --- | --- | --- |
| O=C(NCc1cc(C(F)(F)F)ccn1)c1cn(CCC(F)Cn2cc(C(=O)NCc3cc(C(F)(F)F)ccn3)nn2)nn1 (stereo not shown) [Example 470, 1-{2-fluoro-4-[4-({[4-(trifluoromethyl)pyridin-2-yl]methyl}carbamoyl)-1H-1,2,3-triazol-1-yl]butyl}-N-{[4-(trifluoromethyl)pyridin-2-yl]methyl}-1H-1,2,3-triazole-4-carboxamide] | < 100 | < 100 |
| O=C(NCC1CCCC1)c1cn(CCC(F)Cn2cc(C(=O)NCc3cc(C(F)(F)F)ccn3)nn2)nn1 (stereo not shown) [Example 471, 1-(4-{4-[(cyclopentylmethyl)carbamoyl]-1H-1,2,3-triazol-1-yl}-2-fluorobutyl)-N-{[4-(trifluoromethyl)pyridin-2-yl]methyl}-1H-1,2,3-triazole-4-carboxamide] | < 100 | 100 to 500 |
| O=C(NCC1CCCCO1)c1cn(CCC(F)Cn2cc(C(=O)NCc3cc(C(F)(F)F)ccn3)nn2)nn1 (stereo not shown) [Example 472, 1-(2-fluoro-4-{4-[(oxan-2-ylmethyl)carbamoyl]-1H-1,2,3-triazol-1-yl}butyl)-N-{[4-(trifluoromethyl)pyridin-2-yl]methyl}-1H-1,2,3-triazole-4-carboxamide] | 100 to 500 | 100 to 500 |
| O=C(NCC1CCCOC1)c1cn(CCC(F)Cn2cc(C(=O)NCc3cc(C(F)(F)F)ccn3)nn2)nn1 (stereo not shown) [Example 473, 1-(2-fluoro-4-{4-[(oxan-3-ylmethyl)carbamoyl]-1H-1,2,3-triazol-1-yl}butyl)-N-{[4-(trifluoromethyl)pyridin-2-yl]methyl}-1H-1,2,3-triazole-4-carboxamide] | 100 to 500 | 100 to 500 |
| O=C(NCc1cccc(C(F)(F)F)n1)c1cn(CCC(F)Cn2cc(C(=O)NCc3cc(C(F)(F)F)ccn3)nn2)nn1 (stereo not shown) [Example 474, 1-{2-fluoro-4-[4-({[6-(trifluoromethyl)pyridin-2-yl]methyl}carbamoyl)-1H-1,2,3-triazol-1-yl]butyl}-N-{[4-(trifluoromethyl)pyridin-2-yl]methyl}-1H-1,2,3-triazole-4-carboxamide] | < 100 | < 100 |
| CNC(=O)c1cn(CCC(F)Cn2cc(C(=O)NCc3cc(C(F)(F)F)ccn3)nn2)nn1 (stereo not shown) [Example 475, 1-(3-fluoro-4-(4-((4-(trifluoromethyl)pyridin-2-yl)methylcarbamoyl)-1H-1,2,3-triazol-1-yl)butyl)-N-methyl-1H-1,2,3-triazole-4-carboxamide] | 100 to 500 | 100 to 500 |
| O=C(NCc1cncc(C(F)(F)F)c1)c1cn(CCC(F)Cn2cc(C(=O)NCc3cc(C(F)(F)F)ccn3)nn2)nn1 (stereo not shown) [Example 476, 1-{2-fluoro-4-[4-({[5-(trifluoromethyl)pyridin-3-yl]methyl}carbamoyl)-1H-1,2,3-triazol-1-yl]butyl}-N-{[4-(trifluoromethyl)pyridin-2-yl]methyl}-1H-1,2,3-triazole-4-carboxamide] | < 100 | < 100 |
| O=C(NCc1cccc(OC(F)(F)F)c1)c1cn(CCC(F)Cn2cc(C(=O)NCc3cncc(C(F)(F)F)c3)nn2)nn1 (stereo not shown) [Example 477, 1-{2-fluoro-4-[4-({[3-(trifluoromethoxy)phenyl]methyl}carbamoyl)-1H-1,2,3-triazol-1-yl]butyl}-N-{[5-(trifluoromethyl)pyridin-3-yl]methyl}-1H-1,2,3-triazole-4-carboxamide] | < 100 | < 100 |
| O=C(NCc1cncc(C(F)(F)F)c1)c1cn(CCC(F)Cn2cc(C(=O)NCc3cccc(OC(F)(F)F)c3)nn2)nn1 (stereo not shown) [Example 478, 1-{3-fluoro-4-[4-({[3-(trifluoromethoxy)phenyl]methyl}carbamoyl)-1H-1,2,3-triazol-1-yl]butyl}-N-{[5-(trifluoromethyl)pyridin-3-yl]methyl}-1H-1,2,3-triazole-4-carboxamide] | < 100 | < 100 |
| O=C(NCc1cc(OC(F)(F)F)ccc1F)c1cn(CCC(F)Cn2cc(C(=O)NCc3cncc(C(F)(F)F)c3)nn2)nn1 (stereo not shown) [Example 479, 1-{2-fluoro-4-[4-({[2-fluoro-5-(trifluoromethoxy)phenyl]methyl}carbamoyl)-1H-1,2,3-triazol-1-yl]butyl}-N-{[5-(trifluoromethyl)pyridin-3-yl]methyl}-1H-1,2,3-triazole-4-carboxamide] | < 100 | < 100 |

Further lines, results first:

| IC50 [1] [nM] | EC50 (A549 cells) [nM] | SMILES |
| --- | --- | --- |
| < 100 | < 100 | O=C(NCc1cncc(C(F)(F)F)c1)c1cn(CC(F)CCc2nnc(C(=O)NCc3cccc(C(F)(F)F)c3)s2)nn1 (stereo not shown) [Example 480, 5-{3-fluoro-4-[4-({[5-(trifluoromethyl)pyridin-3-yl]methyl}carbamoyl)-1H-1,2,3-triazol-1-yl]butyl}-N-{[3-(trifluoromethyl)phenyl]methyl}-1,3,4-thiadiazole-2-carboxamide] |
| < 100 | < 100 | O=C(NCc1ccc(C2CC2)nc1)c1cn(CC(F)CCc2nnc(C(=O)NCc3cccc(C(F)(F)F)c3)s2)nn1 (stereo not shown) [Example 481, 5-[4-(4-{[(6-cyclopropylpyridin-3-yl)methyl]carbamoyl}-1H-1,2,3-triazol-1-yl)-3-fluorobutyl]-N-{[3-(trifluoromethyl)phenyl]methyl}-1,3,4-thiadiazole-2-carboxamide] |
| < 100 | < 100 | O=C(NCc1cncc(C(F)(F)F)c1)c1cn(CC(F)CCc2nnc(C(=O)NCc3cccc(OC(F)(F)F)c3)s2)nn1 (stereo not shown) [Example 482, 5-{3-fluoro-4-[4-({[5-(trifluoromethyl)pyridin-3-yl]methyl}carbamoyl)-1H-1,2,3-triazol-1-yl]butyl}-N-{[3-(trifluoromethoxy)phenyl]methyl}-1,3,4-thiadiazole-2-carboxamide] |
| < 100 | < 100 | O=C(NCc1cccc(OC(F)(F)F)c1)c1cn(CC(F)CCc2nnc(C(=O)NCc3cncc(C(F)(F)F)c3)s2)nn1 (stereo not shown) [Example 483, 5-{3-fluoro-4-[4-({[3-(trifluoromethoxy)phenyl]methyl}carbamoyl)-1H-1,2,3-triazol-1-yl]butyl}-N-{[5-(trifluoromethyl)pyridin-3-yl]methyl}-1,3,4-thiadiazole-2-carboxamide] |
| < 100 | < 100 | O=C(NCc1cccc(C(F)(F)F)c1)c1cn(CC(F)CCc2nnc(C(=O)NCc3cncc(C(F)(F)F)c3)s2)nn1 (stereo not shown) [Example 484, 5-{3-fluoro-4-[4-({[3-(trifluoromethyl)phenyl]methyl}carbamoyl)-1H-1,2,3-triazol-1-yl]butyl}-N-{[5-(trifluoromethyl)pyridin-3-yl]methyl}-1,3,4-thiadiazole-2-carboxamide] |
| < 100 | < 100 | O=C(NCc1cncc(C(F)(F)F)c1)c1cn(CC(F)CCc2nnc(C(=O)NCc3cc(C(F)(F)F)ccn3)s2)nn1 (stereo not shown) [Example 485, 5-{3-fluoro-4-[4-({[5-(trifluoromethyl)pyridin-3-yl]methyl}carbamoyl)-1H-1,2,3-triazol-1-yl]butyl}-N-{[4-(trifluoromethyl)pyridin-2-yl]methyl}-1,3,4-thiadiazole-2-carboxamide] |
| < 100 | < 100 | O=C(Cc1cccc(OC(F)(F)F)c1)Nc1cn(CC(F)CCn2cc(C(=O)NCc3ccc(C(F)(F)F)cn3)nn2)nn1 (stereo not shown) [Example 486, 1-[3-fluoro-4-(4-{2-[3-(trifluoromethoxy)phenyl]acetamido}-1H-1,2,3-triazol-1-yl)butyl]-N-{[5-(trifluoromethyl)pyridin-2-yl]methyl}-1H-1,2,3-triazole-4-carboxamide] |
| < 100 | < 100 | O=C(Cc1cccc(OC(F)(F)F)c1)Nc1cn(CC(F)CCn2cc(C(=O)NCc3cccc(C(F)(F)F)n3)nn2)nn1 (stereo not shown) [Example 487, 1-[3-fluoro-4-(4-{2-[3-(trifluoromethoxy)phenyl]acetamido}-1H-1,2,3-triazol-1-yl)butyl]-N-{[6-(trifluoromethyl)pyridin-2-yl]methyl}-1H-1,2,3-triazole-4-carboxamide] |
| < 100 | < 100 | O=C(NCc1cncc(C(F)(F)F)c1)c1cn(CC(F)CCc2nnc(C(=O)NCc3ccc(C(F)(F)F)cn3)s2)nn1 (stereo not shown) [Example 488, 5-{3-fluoro-4-[4-({[5-(trifluoromethyl)pyridin-3-yl]methyl}carbamoyl)-1H-1,2,3-triazol-1-yl]butyl}-N-{[5-(trifluoromethyl)pyridin-2-yl]methyl}-1,3,4-thiadiazole-2-carboxamide] |
| < 100 | < 100 | O=C(NCc1cc(C(F)(F)F)ccn1)c1cn(CC(F)CCc2nnc(C(=O)NCc3ccc(C(F)(F)F)cn3)s2)nn1 (stereo not shown) [Example 489, 5-{3-fluoro-4-[4-({[4-(trifluoromethyl)pyridin-2-yl]methyl}carbamoyl)-1H-1,2,3-triazol-1-yl]butyl}-N-{[5-(trifluoromethyl)pyridin-2-yl]methyl}-1,3,4-thiadiazole-2-carboxamide] |
| < 100 | < 100 | O=C(NCc1cncc(C(F)(F)F)c1)c1cn(CC(F)CCc2nnc(C(=O)NCc3cccc(C(F)(F)F)n3)s2)nn1 (stereo not shown) [Example 490, 5-{3-fluoro-4-[4-({[5-(trifluoromethyl)pyridin-3-yl]methyl}carbamoyl)-1H-1,2,3-triazol-1-yl]butyl}-N-{[6-(trifluoromethyl)pyridin-2-yl]methyl}-1,3,4-thiadiazole-2-carboxamide] |
| < 100 | < 100 | O=C(NCc1cc(C(F)(F)F)ccn1)c1cn(CC(F)CCc2nnc(C(=O)NCc3cccc(C(F)(F)F)n3)s2)nn1 (stereo not shown) [Example 491, 5-{3-fluoro-4-[4-({[4-(trifluoromethyl)pyridin-2-yl]methyl}carbamoyl)-1H-1,2,3-triazol-1-yl]butyl}-N-{[6-(trifluoromethyl)pyridin-2-yl]methyl}-1,3,4-thiadiazole-2-carboxamide] |
| < 100 | 100 to 500 | O=C(NCc1ccc(C(F)(F)F)cn1)c1cn(CC(F)CCc2nnc(C(=O)NCc3cccc(C(F)(F)F)n3)s2)nn1 (stereo not shown) [Example 492, 5-{3-fluoro-4-[4-({[5-(trifluoromethyl)pyridin-2-yl]methyl}carbamoyl)-1H-1,2,3-triazol-1-yl]butyl}-N-{[6-(trifluoromethyl)pyridin-2-yl]methyl}-1,3,4-thiadiazole-2-carboxamide] |
